{"source": "paper PMC7725003", "about": "“Systematically Studying the Optimal Amino Acid Distribution Patterns of the Amphiphilic Structure by Using the Ultrashort Amphiphiles” (Frontiers in Microbiology, 2020)", "key": {"[1]": {"test_system": "E. coli 25922", "type": "cell-based, Escherichia coli", "conditions": "25922, 24 h", "procedure,_shortened": "(§1)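 Bacteria were grown to mid-log phase and diluted in MHB to 0.5–1 × 10^6 CFU mL^–1. Serial peptide dilutions in 0.2% BSA were added at equal volume and plates incubated 24 h at 37°C. Growth inhibition of 95% at 492 nm defined the MIC.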"}, "[2]": {"test_system": "E. coli O78", "type": "cell-based, Escherichia coli", "conditions": "O78, 24 h", "procedure,_shortened": "as §1"}, "[3]": {"test_system": "E. coli UB1005", "type": "cell-based, Escherichia coli", "conditions": "UB1005, 24 h", "procedure,_shortened": "as §1"}, "[4]": {"test_system": "S. typhimurium 14028", "type": "cell-based, Salmonella typhimurium", "conditions": "14028, 24 h", "procedure,_shortened": "as §1"}, "[5]": {"test_system": "S. typhimurium 7731", "type": "cell-based, Salmonella typhimurium", "conditions": "7731, 24 h", "procedure,_shortened": "as §1"}, "[6]": {"test_system": "S. pullorum 7913", "type": "cell-based, Salmonella pullorum", "conditions": "7913, 24 h", "procedure,_shortened": "as §1"}, "[7]": {"test_system": "P. aeruginosa 27853", "type": "cell-based, Pseudomonas aeruginosa", "conditions": "27853, 24 h", "procedure,_shortened": "as §1"}, "[8]": {"test_system": "E. coli K88", "conditions": "MHB, 24 h 37°C, 95% growth inhibition", "procedure,_shortened": "(§2)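 Peptides were serially diluted in 0.2% BSA and added to mid-logarithmic cells diluted in MHB to 0.5–1 × 10^6 CFU mL^–1. Assays followed an adapted NCCLS protocol.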"}, "[9]": {"test_system": "E. coli K99", "conditions": "MHB, 24 h 37°C, 95% growth inhibition", "procedure,_shortened": "as §2"}, "[10]": {"test_system": "Gram-negative bacteria", "procedure,_shortened": "(§3)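 Broth microdilution adapted from NCCLS: mid-log bacteria diluted in MHB to 0.5–1 × 10^6 CFU mL^–1, mixed with peptides serially diluted in 0.2% BSA. After 24 h at 37°C, MIC taken as the lowest concentration inhibiting 95% of growth by absorbance at 492 nm. Assays repeated more than 3 times.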"}, "[11]": {"test_system": "Gram-positive bacteria", "procedure,_shortened": "as §3"}, "[12]": {"test_system": "S. aureus 25923", "type": "cell-based, Staphylococcus aureus", "conditions": "25923, 24 h", "procedure,_shortened": "as §1"}, "[13]": {"test_system": "S. aureus 29213", "type": "cell-based, Staphylococcus aureus", "conditions": "29213, 24 h", "procedure,_shortened": "as §1"}, "[14]": {"test_system": "S. epidermidis 12228", "type": "cell-based, Staphylococcus epidermidis", "conditions": "12228, 24 h", "procedure,_shortened": "as §1"}, "[15]": {"test_system": "MRSA 43300", "type": "cell-based, methicillin-resistant S. aureus", "conditions": "43300, 24 h", "procedure,_shortened": "as §1"}, "[16]": {"test_system": "B. subtilis 63501", "type": "cell-based, Bacillus subtilis", "conditions": "63501, 24 h", "procedure,_shortened": "as §1"}, "[17]": {"test_system": "E. faecalis 29212", "type": "cell-based, Enterococcus faecalis", "conditions": "29212, 24 h", "procedure,_shortened": "as §1"}, "[18]": {"test_system": "Listeria monocytogenes CGMCC 1.1075", "type": "cell-based", "conditions": "CGMCC 1.1075, 24 h", "procedure,_shortened": "as §1"}, "[19]": {"test_system": "all of the tested bacterial strains", "experiment": "Geometric mean of MICs, all tested bacterial strains", "type": "cell-based", "procedure,_shortened": "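Mid-log bacteria at 0.5–1 × 10^6 CFU mL^–1 in MHB with peptides serially diluted in 0.2% BSA, 24 h at 37°C. MIC is the lowest concentration giving 95% growth inhibition by A492. MBC is the lowest giving >99.9% kill on agar subculture, and the GM is taken over all strains.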"}, "[20]": {"test_system": "E. coli ATCC 25922", "experiment": "Salt sensitivity assay (MIC)", "type": "cell-based, Escherichia coli", "procedure,_shortened": "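The salt sensitivity of peptides was tested against E. coli ATCC 25922 using a modified NCCLS broth microdilution MIC method. Mid-log bacteria were diluted in MHB to 0.5–1 × 10^6 CFU mL^–1 and mixed in equal volumes with peptides serially diluted in 0.2% BSA in 96-well plates. Physiological salt was added where specified, and the assay was done three independent times.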"}, "[21]": {"test_system": "S. aureus 29213", "experiment": "Salt sensitivity assay (MIC)", "type": "cell-based, Staphylococcus aureus", "procedure,_shortened": "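MICs determined by broth microdilution in MHB with 0.5–1 × 10^6 CFU/mL, peptides serially diluted in 0.2% BSA, 24 h at 37°C. Medium supplemented with physiological salts (150 mM NaCl, 4.5 mM KCl, 6 μM NH4Cl, 8 μM ZnCl2, 1 mM MgCl2, 2mM CaCl2, 4 μM FeCl3). MIC = lowest concentration inhibiting 95% growth (A492).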"}, "[22]": {"test_system": "Gram-negative bacteria", "conditions": "geometric mean of MBCs, 9 Gram-negative strains (Table 2)"}, "[23]": {"test_system": "Gram-positive bacteria", "conditions": "geometric mean of MBCs, 7 Gram-positive strains (Table 2)"}, "[24]": {"test_system": "P. aeruginosa ATCC 27853", "type": "cell-based, Pseudomonas aeruginosa", "conditions": "after 30 passages in sub-MBC concentration", "experimental": "Finally, P. aeruginosa ATCC 27853 was used as the model of the drug resistance study. […] The MBC values of the drugs against every two passage’s cells were tested. As a control, MBCs were also tested using cells that were serially passaged in fresh MHB without drugs. The assay was conducted independently in triplicate with three biological replicates."}, "[25]": {"conditions": "therapeutic index TI = MHC/GM MIC"}, "[26]": {"conditions": "no added salt, three independent assays"}}, "note": "Where no end group is shown, it is not given here.", "data": [{"compound": "LLLRRRRLL-NH2 [L4]", "values": [{"measurement": "MIC", "setting": "[1]", "value": "> 64", "unit": "µM"}, {"measurement": "MIC", "setting": "[2]", "value": ">64", "unit": "µM"}, {"measurement": "MIC", "setting": "[3]", "value": ">64", "unit": "µM"}, {"measurement": "MIC", "setting": "[4]", "value": "> 64", "unit": "µM"}, {"measurement": "MIC", "setting": "[5]", "value": "> 64", "unit": "µM"}, {"measurement": "MIC", "setting": "[6]", "value": ">64", "unit": "µM"}, {"measurement": "MIC", "setting": "[7]", "value": "> 64", "unit": "µM"}, {"measurement": "MIC", "setting": "[8]", "value": ">64", "unit": "µM"}, {"measurement": "MIC", "setting": "[9]", "value": "> 64", "unit": "µM"}, {"measurement": "GM, Gram-negative bacteria", "setting": "[10]; geometric mean of MICs (Table 3)", "value": 128.00, "unit": "µM"}, {"measurement": "GM MIC", "setting": "[10]; geometric mean of MICs, 9 Gram-negative strains (Table 2)", "value": 128, "unit": "µM"}, {"measurement": "TI, Gram-negative bacteria", "setting": "[10]; [25]", "value": 2.00}, {"measurement": "GM MIC", "setting": "[11]; geometric mean of MICs, 7 Gram-positive strains (Table 2)", "value": 86.14, "unit": "µM"}, {"measurement": "TI, Gram-positive bacteria", "setting": "[11]; [25]", "value": 2.97}, {"measurement": "MIC", "setting": "[12]", "value": "> 64", "unit": "µM"}, {"measurement": "MIC", "setting": "[13]", "value": ">64", "unit": "µM"}, {"measurement": "MIC", "setting": "[14]", "value": "> 64", "unit": "µM"}, {"measurement": "MIC", "setting": "[15]", "value": ">64", "unit": "µM"}, {"measurement": "MBC", "setting": "[16]", "value": 16, "unit": "µM"}, {"measurement": "MIC", "setting": "[16]", "value": 8, "unit": "µM"}, {"measurement": "MIC", "setting": "[17]", "value": "> 64", "unit": "µM"}, {"measurement": "MIC", "setting": "[18]", "value": ">64", "unit": "µM"}, {"measurement": "GM, All", "setting": "[19]; geometric mean of MICs across all tested strains", "value": 107.63, "unit": "µM"}, {"measurement": "TI, All", "setting": "[19]; [25]", "value": 2.38}, {"measurement": "MIC, FeCl3", "setting": "[20]; 4 μM FeCl3", "value": "> 64", "unit": "µM"}, {"measurement": "MIC, NH4Cl", "setting": "[20]; 6 μM NH4Cl", "value": "> 64", "unit": "µM"}, {"measurement": "MIC, ZnCl2", "setting": "[20]; 8 μM ZnCl2", "value": "> 64", "unit": "µM"}, {"measurement": "MIC, MgCl2", "setting": "[20]; 1 mM MgCl2", "value": "> 64", "unit": "µM"}, {"measurement": "MIC, CaCl2", "setting": "[20]; 2 mM CaCl2", "value": "> 64", "unit": "µM"}, {"measurement": "MIC, KCl", "setting": "[20]; 4.5 mM KCl", "value": "> 64", "unit": "µM"}, {"measurement": "MIC, NaCl", "setting": "[20]; 150 mM NaCl", "value": "> 64", "unit": "µM"}, {"measurement": "MIC, Control", "setting": "[20]; [26]", "value": "> 64", "unit": "µM"}, {"measurement": "MIC, FeCl3", "setting": "[21]; 4 μM FeCl3", "value": "> 64", "unit": "µM"}, {"measurement": "MIC, NH4Cl", "setting": "[21]; 6 μM NH4Cl", "value": "> 64", "unit": "µM"}, {"measurement": "MIC, ZnCl2", "setting": "[21]; 8 μM ZnCl2", "value": "> 64", "unit": "µM"}, {"measurement": "MIC, MgCl2", "setting": "[21]; 1 mM MgCl2", "value": "> 64", "unit": "µM"}, {"measurement": "MIC, CaCl2", "setting": "[21]; 2 mM CaCl2", "value": "> 64", "unit": "µM"}, {"measurement": "MIC, KCl", "setting": "[21]; 4.5 mM KCl", "value": "> 64", "unit": "µM"}, {"measurement": "MIC, NaCl", "setting": "[21]; 150 mM NaCl", "value": "> 64", "unit": "µM"}, {"measurement": "MIC, Control", "setting": "[21]; [26]", "value": "> 64", "unit": "µM"}, {"measurement": "GM MBC", "setting": "[22]", "value": 128, "unit": "µM"}, {"measurement": "GM MBC", "setting": "[23]", "value": 95.10, "unit": "µM"}]}, {"compound": "CC(C)(O/N=C(\\C(=O)N[C@@H]1C(=O)N2C(C(=O)[O-])=C(C[n+]3ccccc3)CS[C@H]12)c1csc(N)n1)C(=O)O", "note": "[ceftazidime, reference compound]", "values": [{"measurement": "increase of MBC value", "setting": "[24]", "value": 64, "unit": "fold"}]}]}
